Experimental data from patent US20230312550A1, “N-(2-(4-CYANOTHIAZOLIDIN-3-YL)-2-OXOETHYL)-QUINOLINE-4-CARBOXAMIDES” (AstraZeneca AB, priority 2020, published 2023).
≈ marks a conversion by molar mass, not a printed value.

Key:
[1] = target: human dipeptidylpeptidase 9 (hDPP9) (Homo sapiens (Human), UniProt Q86TI2); test: hDPP9 inhibition assay; format: biochemical; conditions: hDPP9 0.4 nM, Ala-Pro-amino-methylcoumarin 5 μM, n = 1
Method: (§1) Compounds were tested in a biochemical inhibition assay using human dipeptidylpeptidase 9 (hDPP9) enzyme at 0.4 nM FAC (BPS Bioscience, #80090) and the substrate Ala-Pro-amino-methylcoumarin (BPS Bioscience #80305) at 5 μM FAC. The enzymatic reactions were conducted in duplicate at rt for 30 min in 50 μL DPP assay buffer (BPS Bioscience, #80300). […] The plates were read on a Tecan Infinite M1000 microplate reader with excitation 340 nm and emission 460 nm. Data were analyzed in Graph Pad Prism. IC50 values were determined by plotting % inhibition versus log compound concentration and using a one site dose response model. Raw data signals were normalized using 1% DMSO as 0% control and no enzyme as 100% inhibitor control.

FAP = FAP (Mus musculus (Mouse), UniProt P97321); test: FAP plasma inhibition assay, mouse plasma; format: biochemical; conditions: mouse plasma diluted 1:67, Ala-Pro-AMC 75 μM
FAP, sequence (P97321 24-761): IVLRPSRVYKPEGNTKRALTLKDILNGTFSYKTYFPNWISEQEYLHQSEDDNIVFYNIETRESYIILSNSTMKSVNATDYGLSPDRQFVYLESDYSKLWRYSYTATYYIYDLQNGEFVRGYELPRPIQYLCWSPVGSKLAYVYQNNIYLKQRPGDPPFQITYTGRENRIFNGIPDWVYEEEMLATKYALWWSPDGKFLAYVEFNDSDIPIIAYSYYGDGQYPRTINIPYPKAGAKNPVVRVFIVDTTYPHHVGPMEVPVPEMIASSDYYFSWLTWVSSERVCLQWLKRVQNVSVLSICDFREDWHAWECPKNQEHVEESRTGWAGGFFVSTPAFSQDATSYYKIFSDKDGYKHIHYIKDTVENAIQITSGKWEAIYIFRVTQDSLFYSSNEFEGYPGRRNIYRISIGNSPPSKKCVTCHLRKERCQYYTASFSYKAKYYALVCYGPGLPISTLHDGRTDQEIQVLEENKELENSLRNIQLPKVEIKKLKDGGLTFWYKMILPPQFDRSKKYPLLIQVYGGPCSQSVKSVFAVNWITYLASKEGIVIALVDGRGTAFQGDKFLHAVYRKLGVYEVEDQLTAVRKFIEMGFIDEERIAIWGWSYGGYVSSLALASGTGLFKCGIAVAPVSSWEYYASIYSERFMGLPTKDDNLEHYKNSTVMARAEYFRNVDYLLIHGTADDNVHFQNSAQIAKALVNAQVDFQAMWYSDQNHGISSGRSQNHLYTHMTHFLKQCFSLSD
Procedure, shortened: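 K2EDTA plasma served as enzyme source, human diluted 1:40 and mouse 1:67, in PBS with 0.1% BSA. Compounds ran as a 10-point 3-fold series from 500 nM final, in duplicate, 40 min at rt in the dark, with fluorescence read against a pre-substrate blank. IC50 came from % inhibition versus log concentration.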

[2] = target: human dipeptidylpeptidase 7 (hDPP7) (Homo sapiens (Human), UniProt Q9UHL4); test: hDPP7 inhibition assay; format: biochemical; conditions: hDPP7 15 nM, Ala-Pro-amino-methylcoumarin 5 μM, n = 1
Method: Compounds were tested in a biochemical inhibition assay using human dipeptidylpeptidase 7 (hDPP7) enzyme at 15 nM FAC (BPS Bioscience, #80070) and the substrate Ala-Pro-amino-methylcoumarin (BPS Bioscience, #80305) at 5 μM FAC. The enzymatic reactions were conducted in duplicate at rt for 30 min in 50 μL DPP assay buffer (BPS Bioscience, #80300). Compound solutions (in DMSO) at 10 CR, 3 fold dilution series were prepared in assay buffer ten-fold higher than the final concentration, and 5 μL of the dilution was added to a 50 μL reaction so that the highest compound concentration was 100 μM FAC and the concentration of DMSO was 1% in all wells. The plates were read on a Tecan Infinite M1000 microplate reader with excitation 340 nm and emission 460 nm. Data were analyzed in Graph Pad Prism. IC50 values were determined by plotting % inhibition versus log compound concentration and using a one site dose response model. Raw data signals were normalized using 1% DMSO as 0% control and no enzyme as 100% inhibitor control.

[3] = target: human dipeptidylpeptidase 8 (hDPP8) (Homo sapiens (Human), UniProt Q6V1X1); test: hDPP8 inhibition assay; format: biochemical; conditions: Ala-Pro-amino-methylcoumarin 5 μM, n = 1
human dipeptidylpeptidase 8 (hDPP8), sequence (Q6V1X1 whole entry): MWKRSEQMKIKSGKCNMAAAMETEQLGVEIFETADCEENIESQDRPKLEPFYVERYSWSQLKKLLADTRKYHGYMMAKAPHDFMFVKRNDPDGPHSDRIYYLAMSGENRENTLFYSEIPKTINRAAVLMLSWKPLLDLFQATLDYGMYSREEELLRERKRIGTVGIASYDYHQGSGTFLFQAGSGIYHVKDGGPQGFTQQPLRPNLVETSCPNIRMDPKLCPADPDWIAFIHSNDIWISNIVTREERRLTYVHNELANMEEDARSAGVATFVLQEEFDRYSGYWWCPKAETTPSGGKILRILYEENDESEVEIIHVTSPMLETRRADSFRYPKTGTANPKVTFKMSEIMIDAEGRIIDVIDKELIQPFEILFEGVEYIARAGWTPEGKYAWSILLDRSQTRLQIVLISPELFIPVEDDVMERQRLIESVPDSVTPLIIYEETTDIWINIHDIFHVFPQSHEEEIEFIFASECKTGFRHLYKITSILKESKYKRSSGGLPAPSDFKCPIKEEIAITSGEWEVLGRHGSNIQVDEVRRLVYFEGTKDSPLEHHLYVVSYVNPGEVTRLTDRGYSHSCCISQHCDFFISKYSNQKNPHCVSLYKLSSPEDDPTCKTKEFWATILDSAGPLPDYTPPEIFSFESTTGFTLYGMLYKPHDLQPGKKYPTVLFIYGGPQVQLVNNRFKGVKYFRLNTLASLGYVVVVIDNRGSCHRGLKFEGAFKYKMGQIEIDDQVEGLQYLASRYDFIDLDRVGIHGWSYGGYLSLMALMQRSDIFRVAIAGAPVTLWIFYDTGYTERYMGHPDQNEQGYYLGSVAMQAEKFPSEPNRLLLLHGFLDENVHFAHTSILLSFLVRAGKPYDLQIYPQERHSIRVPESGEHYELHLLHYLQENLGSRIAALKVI
Method: as §1, with “The” for “Compounds were tested in a biochemical inhibition assay using human dipeptidylpeptidase 9 (hDPP9) enzyme at 0.4 nM FAC (BPS Bioscience, #80090) and the substrate Ala-Pro-amino-methylcoumarin (BPS Bioscience #80305) at 5 μM FAC. The”

hFAP (M39-A757) = hFAP (M39-A757) (Homo sapiens (Human), UniProt Q12884); test: hFAP binding assay (surface plasmon resonance); conditions: SPR, 20° C.; for hFAP Binding assay k(off) / hFAP Binding assay k(on): single cycle kinetics
hFAP (M39-A757), sequence (Q12884 39-757): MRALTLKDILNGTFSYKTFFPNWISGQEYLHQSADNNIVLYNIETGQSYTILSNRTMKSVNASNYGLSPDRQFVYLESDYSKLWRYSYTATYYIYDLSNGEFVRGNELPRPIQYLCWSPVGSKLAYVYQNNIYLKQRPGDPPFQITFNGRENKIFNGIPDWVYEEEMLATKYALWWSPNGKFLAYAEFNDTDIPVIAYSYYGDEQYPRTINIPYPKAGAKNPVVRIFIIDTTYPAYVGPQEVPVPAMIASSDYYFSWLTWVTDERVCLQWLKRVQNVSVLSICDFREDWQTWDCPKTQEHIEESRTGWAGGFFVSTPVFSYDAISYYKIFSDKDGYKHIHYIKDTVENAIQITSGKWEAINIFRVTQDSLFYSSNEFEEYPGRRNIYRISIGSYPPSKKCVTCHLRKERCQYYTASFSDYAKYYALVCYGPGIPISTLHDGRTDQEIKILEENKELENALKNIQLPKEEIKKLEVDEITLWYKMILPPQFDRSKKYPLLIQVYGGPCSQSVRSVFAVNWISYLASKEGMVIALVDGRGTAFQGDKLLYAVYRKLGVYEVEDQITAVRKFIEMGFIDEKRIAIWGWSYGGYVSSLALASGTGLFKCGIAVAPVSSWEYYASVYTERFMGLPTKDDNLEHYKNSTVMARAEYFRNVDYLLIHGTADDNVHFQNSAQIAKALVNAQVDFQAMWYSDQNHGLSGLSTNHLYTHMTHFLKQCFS

[4] = target: Prolyl endopeptidase, Prolyl Oligopeptidase (hPREP) (Homo sapiens (Human), UniProt P48147); test: hPrep inhibition assay; format: biochemical; conditions: hPREP 0.6 nM, Z-Gly-Pro-amino-methylcoumarin 50 μM; read-out: PREP IC50
Prolyl endopeptidase, Prolyl Oligopeptidase (hPREP), sequence (P48147 whole entry): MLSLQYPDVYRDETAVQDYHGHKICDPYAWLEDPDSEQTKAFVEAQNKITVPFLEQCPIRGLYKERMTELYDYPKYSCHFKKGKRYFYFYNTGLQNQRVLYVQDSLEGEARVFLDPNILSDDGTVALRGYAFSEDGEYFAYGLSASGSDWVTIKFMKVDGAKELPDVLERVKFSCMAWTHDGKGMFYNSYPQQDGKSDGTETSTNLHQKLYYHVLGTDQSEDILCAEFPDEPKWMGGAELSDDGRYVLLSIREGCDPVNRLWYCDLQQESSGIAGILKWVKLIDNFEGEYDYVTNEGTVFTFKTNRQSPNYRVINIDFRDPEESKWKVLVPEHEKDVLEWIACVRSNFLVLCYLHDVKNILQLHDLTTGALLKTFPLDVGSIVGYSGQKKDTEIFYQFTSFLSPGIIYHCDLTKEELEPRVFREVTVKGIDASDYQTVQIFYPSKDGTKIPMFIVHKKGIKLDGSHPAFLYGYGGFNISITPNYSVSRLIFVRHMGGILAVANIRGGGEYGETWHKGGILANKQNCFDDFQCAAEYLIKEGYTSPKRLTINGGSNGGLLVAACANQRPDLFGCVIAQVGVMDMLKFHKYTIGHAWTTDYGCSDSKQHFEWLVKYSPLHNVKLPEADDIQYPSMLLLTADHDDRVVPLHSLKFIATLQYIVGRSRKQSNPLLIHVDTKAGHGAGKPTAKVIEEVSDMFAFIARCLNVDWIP
Procedure, shortened: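 Fluorogenic read-out (340 nm excitation, 460 nm emission) after 20 min at rt, using 50 μM final Z-Gly-Pro-aminomethylcoumarin and 0.6 nM final enzyme, following 15 min compound preincubation. Buffer pH 7.5 with glutathione and Triton X-100. IC50 via one-site model on % inhibition vs log concentration.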

in vitro [5] = conditions: human, microsomes, HLM CLint
Method: Metabolic stability in HLM was measured as described in J Comput Aided Mol Des 2015, 29, 795.

physchem = conditions: kinetic from dmso stock
Method: Kinetic solubility was measured as described in Comput Aided Mol Des 2015, 29, 795.

[6] = target: human Fibroblast activation protein alpha (hFAP) (Homo sapiens (Human), UniProt Q12884); test: hFAP inhibition assay (tight binders); format: biochemical; conditions: Ala-Pro-AMC 20 μM, n = 1 or geometric mean n = 2-6; also: hFAP 2.4 pM
human Fibroblast activation protein alpha (hFAP), sequence (Q12884 38-760): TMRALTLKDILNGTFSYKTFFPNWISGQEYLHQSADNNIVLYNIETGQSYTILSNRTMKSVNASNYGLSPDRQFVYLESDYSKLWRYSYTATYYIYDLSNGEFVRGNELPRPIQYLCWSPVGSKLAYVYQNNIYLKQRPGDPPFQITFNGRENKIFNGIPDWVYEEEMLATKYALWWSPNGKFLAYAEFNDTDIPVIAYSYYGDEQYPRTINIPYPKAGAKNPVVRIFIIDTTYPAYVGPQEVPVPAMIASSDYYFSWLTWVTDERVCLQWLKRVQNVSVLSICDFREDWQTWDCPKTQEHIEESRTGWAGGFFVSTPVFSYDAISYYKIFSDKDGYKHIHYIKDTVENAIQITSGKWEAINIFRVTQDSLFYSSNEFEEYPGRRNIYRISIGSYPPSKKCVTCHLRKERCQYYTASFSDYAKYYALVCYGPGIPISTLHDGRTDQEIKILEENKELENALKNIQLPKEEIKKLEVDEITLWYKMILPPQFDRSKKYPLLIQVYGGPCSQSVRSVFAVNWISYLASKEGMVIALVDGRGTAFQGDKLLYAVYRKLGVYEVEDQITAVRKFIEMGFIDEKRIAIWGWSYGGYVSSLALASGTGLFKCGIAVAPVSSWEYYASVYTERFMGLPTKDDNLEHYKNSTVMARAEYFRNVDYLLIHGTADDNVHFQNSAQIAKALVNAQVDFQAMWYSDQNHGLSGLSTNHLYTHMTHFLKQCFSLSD
Method: The plates were read on a PHERAstar® reader with excitation 340 nm and emission 460 nm. Data were analyzed in Genedata Screener®. IC50 values were determined by plotting % inhibition versus log compound concentration and using a one site dose response model.

[7] = rat, hepatocytes
in vitro [8] = conditions: human, Caco-2
Method: Caco-2 cell permeability was measured as described in Mol Pharm 2017, 14, 1601.

[9] = target: Fibroblast Activation Protein alpha (FAP) (Mus musculus (Mouse), UniProt P97321); test: in vivo
Fibroblast Activation Protein alpha (FAP), sequence (P97321 24-761): as the sequence (P97321 24-761) above
Method: The effect of test compound on FAP enzyme activity in mouse plasma was evaluated in an enzymatic assay using the Fibroblast Activation Protein alpha (FAP) specific fluorogenic substrate dipeptide-Coumarin, Ala-Pro-AMC, (ARI-3144).
Male C57Bl/6 mice (Charles River, Germany), 8 weeks of age, were single housed in a temperature-controlled room with a 12-hour light/dark cycle (06:00-18:00 light). The mice had ad libitum access to water and rodent chow diet (R70, Lactamin, Kimstad, Sweden), and were acclimated for 5 days upon arrival. After acclimation, all mice received a single oral dose of test compound (3 or 10 mg/kg). Blood samples for whole blood compound exposure measurements were taken at 0.25, 0.5, 1, 2, 4, 8 and 24 h post oral dosing. Samples were collected in EDTA capillary tubes (20 μL, K2E, REF 19.447) and were transferred to a 96-deep well plate (NUNC, Thermo Discher Scientific) and stored at −20° C. until further analyses were performed. Blood samples for plasma FAP enzyme activity measurements were taken at 0, 0.25, 0.5, 1, 2, 8 and 24 h post dosing. 25 μL of whole blood was collected in EDTA Microvette® CB 300 (K2E, REF 16.444.100) tubes, and were centrifuged at 4,000×g for 5 min. 10 μL of plasma was then transferred to PCR tubes and stored at −20° C. until further analysis was performed. All blood samples were taken by vena saphena puncture.
Recombinant human FAP (PB-17-1837, construct PL-17-0278, cd33-FAP (27-757)-6His, Mw85926 Da) was used as a standard for this assay. […] The plates were read on a Beckman Paradigm reader with excitation 360 nm and emission 465 nm. Fluorescence measurements were performed with kinetic read every 5 minutes for 60 min at room temperature. Data were analyzed in Excel (IDBS XLfit Add-In) using a Linear Regression (y=k*x+m) model to prepare a human recombinant FAP standard curve.
On the day of the assay, plasma was diluted (1:2) to 20 μL volume in buffer (PBS, 0.1% BSA) and 7.5 μL was transferred to the assay plate (384-well black, fluotrack PS, Greiner 781076). Ala-Pro-AMC (stock solution in 10 mM DMSO) was diluted in buffer (PBS, 0.1% BSA) to 150 μM concentration (180 μL stock solution to 12 mL buffer) and 7.5 μL added to the assay plate followed by a pipetting mix. The plates were read on a Beckman Paradigm reader with excitation 360 nm and emission 465 nm. Fluorescence measurements were performed with kinetic read every 5 minutes for 60 minutes at room temperature. As noted above, FAP cleaves Ala-Pro-AMC to release free AMC which is measured as a fluorescent signal.
The in vivo potency IC50 of each test compound was then estimated by relating the plasma exposure C of the compound to target engagement E in plasma using the following equation:
where E0 is the FAP baseline in plasma prior to dosing and Imax is the maximum effect of the compound. Data from each target engagement experiment were considered separately and therefore slightly different estimates of FAP baseline for each compound were obtained. […] The parameter estimation was done in Phoenix WinNonlin Certara build 8.1.0.3530 with the algorithm ‘Naïve pooled’ as parameter estimation method.

human dipeptidylpeptidase 9 (hDPP9), sequence (Q86TI2 whole entry): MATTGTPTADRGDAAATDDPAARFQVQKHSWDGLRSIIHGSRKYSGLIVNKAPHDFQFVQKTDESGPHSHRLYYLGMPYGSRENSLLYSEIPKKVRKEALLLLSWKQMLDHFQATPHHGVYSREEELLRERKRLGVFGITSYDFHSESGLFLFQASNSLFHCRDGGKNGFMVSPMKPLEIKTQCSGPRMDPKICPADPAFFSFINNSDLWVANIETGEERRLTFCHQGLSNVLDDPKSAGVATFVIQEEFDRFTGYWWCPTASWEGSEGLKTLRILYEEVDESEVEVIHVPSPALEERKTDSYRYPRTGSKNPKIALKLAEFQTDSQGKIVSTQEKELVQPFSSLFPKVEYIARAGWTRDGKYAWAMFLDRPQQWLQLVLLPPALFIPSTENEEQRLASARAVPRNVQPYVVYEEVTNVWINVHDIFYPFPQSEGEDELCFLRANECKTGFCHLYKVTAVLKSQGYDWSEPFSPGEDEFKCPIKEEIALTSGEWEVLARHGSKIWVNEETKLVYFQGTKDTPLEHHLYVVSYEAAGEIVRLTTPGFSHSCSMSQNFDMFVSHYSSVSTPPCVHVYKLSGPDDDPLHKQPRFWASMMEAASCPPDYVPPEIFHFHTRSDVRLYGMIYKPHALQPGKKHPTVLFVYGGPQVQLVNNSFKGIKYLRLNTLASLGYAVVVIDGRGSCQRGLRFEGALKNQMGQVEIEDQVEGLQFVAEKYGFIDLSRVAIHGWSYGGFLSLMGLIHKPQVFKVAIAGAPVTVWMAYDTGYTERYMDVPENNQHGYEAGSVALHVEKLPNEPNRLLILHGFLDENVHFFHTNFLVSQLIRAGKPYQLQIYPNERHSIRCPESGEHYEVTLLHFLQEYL

`C[C@@H]1CN(c2ccc3nccc(C(=O)NCC(=O)N4CSC[C@H]4C#N)c3c2)C[C@@H](C)O1` [Example 70, N-(2-((R)-4-Cyanothiazolidin-3-yl)-2-oxoethyl)-6-((2R,6R)-2,6-dimethylmorpholino)-quinoline-4-carboxamide] showed an IC50 [1] of 1400 nM, an IC50 (FAP) of 0.3 nM and an IC50 [2] of over 100000 nM. The IC50 [3] was 4700 nM, the “hFAP Binding assay k(off)” value (hFAP (M39-A757)) was 0.00014 s⁻¹ and the “hFAP Binding assay k(on)” value (hFAP (M39-A757)) was 5400000 M⁻¹ s⁻¹. For the same molecule, the IC50 [4] was 1100 nM.
For `N#C[C@@H]1CSCN1C(=O)CNC(=O)c1ccnc2ccc(N3CC4CC(C3)O4)cc12` [Example 77, 6-(6-Oxa-3-azabicyclo[3.1.1]heptan-3-yl)-N-(2-((R)-4-cyanothiazolidin-3-yl)-2-oxoethyl)quinoline-4-carboxamide], the “hFAP Binding assay k(off)” value (hFAP (M39-A757)) was 0.000066 s⁻¹, the “hFAP Binding assay k(on)” value (hFAP (M39-A757)) was 4800000 M⁻¹ s⁻¹ and the Kd (hFAP (M39-A757); n = 1 or geometric mean n = 2-4) was 0.014 nM. For the same molecule, the IC50 [4] was 470 nM, the microsomal CLint (in vitro [5]) was 7.1 µL/min/mg and the solubility (physchem) was 850 µM (≈ 360 µg/mL). The IC50 [6] was 0.051 nM, the “rHep CLint” value [7] was 5.4 μL/min/1E6 and the Papp A→B (in vitro [8]) was 0.57 ×10⁻⁶ cm/s. For the same molecule, the Papp B→A (in vitro [8]) was 16 ×10⁻⁶ cm/s and the efflux ratio (in vitro [8]) was 29.
For `C[C@@H]1CN(c2ccc3nccc(C(=O)NCC(=O)N4CSC[C@H]4C#N)c3c2)C[C@H](C)O1` [Example 68, N-(2-((R)-4-Cyanothiazolidin-3-yl)-2-oxoethyl)-6-((2R,6S)-2,6-dimethylmorpholino)-quinoline-4-carboxamide], the IC50 [9] was 19 nM, the IC50 [1] was 1500 nM and the IC50 (FAP) was 0.5 nM. The IC50 [2] was over 100000 nM, the IC50 [3] was 6600 nM and the “hFAP Binding assay k(off)” value (hFAP (M39-A757)) was 0.00011 s⁻¹. For the same molecule, the “hFAP Binding assay k(on)” value (hFAP (M39-A757)) was 1000000 M⁻¹ s⁻¹ and the IC50 [4] was 1700 nM.
